Test results: US5508269A, “Aminoglycoside formulation for aerosolization” (priority 1994, dated 1996)
Values after ≈ are worked out from the molar mass of the structure shown. Values joined by “and” are separate entries in the source; they are usually repeats but may differ in a detail not shown here. Equal entries are not always repeated. Where two headings read alike, the source gives them in different places.

Key:
Pseudomonas aeruginosa [1] = experiment: MIC of tobramycin for P. aeruginosa isolates from sputum of CF patients; type: cell-based; settings: for # of Patients (isolate with maximum density) / Cumulative Frequency (isolate with maximum density): most common isolate; for Cumulative Frequency (isolate with maximum MIC): most resistant isolate
Experimental: This study was a one-year review of all microbiologic records at Children's Hospital in Seattle. All positive Pseudomonas aeruginosa culture data were collated that occurred in patients with Cystic Fibrosis. If multiple cultures from a single individual had been obtained, the first culture was taken as representative.
MIC90 is the concentration of the drug which inhibits 90% of Pseudomonas aeruginosa isolates. Sputum samples from CF patients were cultured to produce individual colony forming units (CFUs). The MIC was then determined for individual CFUs. CFUs were considered different isolates if their MICs were different.

clinical = type: in vivo, CF patients; settings: for Sputum Tobramycin Concentrations / Serum Tobramycin: Baseline; for Sputum Tobramycin Concentrations: per subject or mean line; for Serum Tobramycin / concentration at 1 h / concentration at 2 h: single subjects 001-005 in order; for concentration at 10 min / concentration at 1 h / concentration at 2 h: human, inhaled or intranasal, 300 mg; for concentration at 1 h: 1 hour after aerosol; for concentration at 2 h: 2 hours after aerosol
Excerpt: The doses were separated by at least 2 days and not more than 5 days.

[2] = type: in vivo, CF patients; settings: for ± % change FEV1: 30 min after aerosol, 300 mg in 5 ml 1/4 NS, single subjects 001-005 in order
Experimental: The doses were separated by at least 2 days and not more than 5 days. Peak serum and sputum concentrations were assessed and results are seen in Tables 5 and 6.
Sixty patients were enrolled. Each patient received, in random order, one administration from each nebulizer delivery system. Each aerosol administration was separated by a minimum of 48 hr. […] Airway irritation and acute bronchospasm were assessed by measuring spirometry immediately prior to and 30 min post-completion of aerosol administration. A decrease in FEV1>15% in the 30 min spirometry test was considered evidence of bronchospasm.

[3] = Clinical Trial II, sputum tobramycin levels with three nebulizers; type: in vivo, patients with cystic fibrosis; settings: for sputum tobramycin level, grand mean: 20 patients
Experimental: This was an open label, multicenter, randomized, cross-over three arm study. Each arm was different nebulizer delivery system. Two arms deliver the same tobramycin formulation.
2. […] The number of inhalations required as recorded.
3. […] The number of inhalations required was recorded.
[…] Each patient received, in random order, one administration from each nebulizer delivery system. Each aerosol administration was separated by a minimum of 48 hr. […] Airway irritation and acute bronchospasm were assessed by measuring spirometry immediately prior to and 30 min post-completion of aerosol administration. A decrease in FEV1>15% in the 30 min spirometry test was considered evidence of bronchospasm.
Immediately after completing the aerosol therapy, the subject rinsed with 30 ml of normal saline through the mount, gargled for 5-10 seconds and expectorated the rinse. This was repeated for a total of three rinses. Sputum specimens were collected at 10 minutes after rinsing oral cavity and 2 hours after completion of the aerosol drug administration. […] Spirometry was obtained 30 minutes following completion of the aerosol drug administration. Following the last aerosol treatment of the study, patients received a brief physical exam after post-spirometry has been measured.

[4] = Accelerated stability study at 40° C; type: physicochemical; settings: pH greater than 7.0
Excerpt: The higher temperature was chosen to accelerate any degradation process. […] Color was examined by KS scale.

[5] = Preliminary pharmacokinetics of tobramycin in sputum after aerosol; type: in vivo, patients with CF; settings: 20 mg/ml in 30 ml half normal saline; for Cmax: Ultraneb 99, 200 inhalations, twenty patients
Experimental: These levels ranged from 310.4 μg/gm to 5,941 μg/gm, with median level at 1,606 μg/gm). The sputum levels declined rapidly after 30 minutes, reaching a minimum at four hours.

Pseudomonas aeruginosa [6] = experiment: Previously studied 80 mg doses of tobramycin; type: in vivo, patients; settings: initially
Excerpt: If any degree of drug resistance developed, only a small percentage of patients would be effectively treated.

P. aeruginosa = settings: cited from earlier work
[7] = cited from earlier work
[8] = cited from earlier work; remark: listed apart in the source
[9] = parenteral, short period of time; cited from earlier work
Pseudomonas aeruginosa [10] = settings: Pedia Pulmonol. 6:91-8 (1989); cited from earlier work
[11] = Sidestream, 300 mg in 5 ml 1/4 NS
[12] = serum, Serum Tobramycin, Pari LC, 300 mg in 5 ml 1/4 NS

NC[C@H]1O[C@H](O[C@H]2[C@H](O)[C@@H](O[C@H]3O[C@H](CO)[C@@H](O)[C@H](N)[C@H]3O)[C@H](N)C[C@@H]2N)[C@H](N)C[C@@H]1O [tobramycin]
share of isolates whose MIC is exceeded approximately ten-fold by a sputum level of 128 μg/gm (Pseudomonas aeruginosa [1]; 128 μg/gm sputum level approximately ten-fold greater than MIC): 90% | share of isolates whose MIC is reached by a sputum level of 128 μg/gm (Pseudomonas aeruginosa [1]; 128 μg/gm sputum level greater than or equal to MIC): 98% | # of Patients (isolate with maximum density) (Pseudomonas aeruginosa [1]; MIC 1 μg/ml, n=58): 9 | Cumulative Frequency (isolate with maximum density) (Pseudomonas aeruginosa [1]; MIC 1 μg/ml, n=58): 78% | Cumulative Frequency (isolate with maximum MIC) (Pseudomonas aeruginosa [1]; MIC 1 μg/ml, n=58): 67% | # of Patients (isolate with maximum density) (Pseudomonas aeruginosa [1]; MIC 2 μg/ml, n=58): 3 | Cumulative Frequency (isolate with maximum density) (Pseudomonas aeruginosa [1]; MIC 2 μg/ml, n=58): 83% | Cumulative Frequency (isolate with maximum MIC) (Pseudomonas aeruginosa [1]; MIC 2 μg/ml, n=58): 75% | # of Patients (isolate with maximum density) (Pseudomonas aeruginosa [1]; MIC 4 μg/ml, n=58): 2 | Cumulative Frequency (isolate with maximum density) (Pseudomonas aeruginosa [1]; MIC 4 μg/ml, n=58): 86% | Cumulative Frequency (isolate with maximum MIC) (Pseudomonas aeruginosa [1]; MIC 4 μg/ml, n=58): 83% | # of Patients (isolate with maximum density) (Pseudomonas aeruginosa [1]; MIC 8 μg/ml, n=58): 2 | Cumulative Frequency (isolate with maximum density) (Pseudomonas aeruginosa [1]; MIC 8 μg/ml, n=58): 90% | Cumulative Frequency (isolate with maximum MIC) (Pseudomonas aeruginosa [1]; MIC 8 μg/ml, n=58): 86% | # of Patients (isolate with maximum density) (Pseudomonas aeruginosa [1]; MIC 16 μg/ml, n=58): 2 | Cumulative Frequency (isolate with maximum density) (Pseudomonas aeruginosa [1]; MIC 16 μg/ml, n=58): 93% | Cumulative Frequency (isolate with maximum MIC) (Pseudomonas aeruginosa [1]; MIC 16 μg/ml, n=58): 90% | # of Patients (isolate with maximum density) (Pseudomonas aeruginosa [1]; MIC 32 μg/ml, n=58): 1 | Cumulative Frequency (isolate with maximum density) (Pseudomonas aeruginosa [1]; MIC 32 μg/ml, n=58): 95% | Cumulative Frequency (isolate with maximum MIC) (Pseudomonas aeruginosa [1]; MIC 32 μg/ml, n=58): 93% | # of Patients (isolate with maximum density) (Pseudomonas aeruginosa [1]; MIC 64 μg/ml, n=58): 1 | Cumulative Frequency (isolate with maximum density) (Pseudomonas aeruginosa [1]; MIC 64 μg/ml, n=58): 97% | Cumulative Frequency (isolate with maximum MIC) (Pseudomonas aeruginosa [1]; MIC 64 μg/ml, n=58): 95% | # of Patients (isolate with maximum density) (Pseudomonas aeruginosa [1]; MIC 128 μg/ml, n=58): 2 | Cumulative Frequency (isolate with maximum density) (Pseudomonas aeruginosa [1]; MIC 128 μg/ml, n=58): 98% | Cumulative Frequency (isolate with maximum MIC) (Pseudomonas aeruginosa [1]; MIC 128 μg/ml, n=58): 98% | # of Patients (isolate with maximum density) (Pseudomonas aeruginosa [1]; MIC 256 μg/ml, n=58): 1 | Cumulative Frequency (isolate with maximum density) (Pseudomonas aeruginosa [1]; MIC 256 μg/ml, n=58): 100% | Cumulative Frequency (isolate with maximum MIC) (Pseudomonas aeruginosa [1]; MIC 256 μg/ml, n=58): 100% | # of Patients (isolate with maximum density) (Pseudomonas aeruginosa [1]; MIC .25 μg/ml, n=58): 26 | Cumulative Frequency (isolate with maximum density) (Pseudomonas aeruginosa [1]; MIC .25 μg/ml, n=58): 45% | Cumulative Frequency (isolate with maximum MIC) (Pseudomonas aeruginosa [1]; MIC .25 μg/ml, n=58): 36% | # of Patients (isolate with maximum density) (Pseudomonas aeruginosa [1]; MIC .5 μg/ml, n=58): 10 | Cumulative Frequency (isolate with maximum density) (Pseudomonas aeruginosa [1]; MIC .5 μg/ml, n=58): 63% | Cumulative Frequency (isolate with maximum MIC) (Pseudomonas aeruginosa [1]; MIC .5 μg/ml, n=58): 53% | MIC (Pseudomonas aeruginosa [1]; Pseudomonas aeruginosa): 128 µg/mL | inhibition at 128 µg/mL (Pseudomonas aeruginosa [1]; Pseudomonas aeruginosa, read-out: inhibition of most resistant and most common isolates): 98% | MIC (Pseudomonas aeruginosa [1]; Table 3: most tobramycin-resistant isolate of each patient, n=58, number of patients on same line): .25 µg/mL and .5 µg/mL and 1 µg/mL and 2 µg/mL and 4 µg/mL and 8 µg/mL and 16 µg/mL and 32 µg/mL and 64 µg/mL and 256 µg/mL | MIC (Pseudomonas aeruginosa [1]; Table 4: most common isolate (maximum density) of each patient, n=58, number of patients on same line): .25 µg/mL and .5 µg/mL and 1 µg/mL and 2 µg/mL and 4 µg/mL and 8 µg/mL and 16 µg/mL and 32 µg/mL and 64 µg/mL and 128 µg/mL and 256 µg/mL | Sputum Tobramycin Concentrations (clinical; Pari LC, 300 mg in 5 ml 1/4 NS): bql (< 20 μg/gm) | Serum Tobramycin (clinical; Pari LC, 300 mg in 5 ml 1/4 NS): not detected | achievement of target sputum concentration (in words) (clinical; Sidestream and Pari LC, target 128-1000 μg/g, 300 mg in 5 ml 1/4 NS): able to achieve a target concentrations of tobramycin in sputum | Sputum Tobramycin Concentrations (clinical; [11]): bql (< 20 μg/gm) | Serum Tobramycin (clinical; [11]): not detected | concentration at 10 min (clinical; in vivo, Sidestream, 10 min, 5 subjects): 527000 ± 586000 ng/g | concentration at 1 h (clinical; [12]): 500 ng/mL | concentration at 2 h (clinical; [12]): 400 ng/mL | concentration at 1 h (clinical; serum, Serum Tobramycin, Sidestream, 300 mg in 5 ml 1/4 NS): 200 ng/mL | concentration at 10 min (clinical; sputum, 300 mg in 5 ml of 60 mg/ml in 1/4 NS, read-out: sputum concentration achieved (target concentration)): > 128000 ng/g | concentration at 10 min (clinical; sputum, Sputum Tobramycin Concentrations, Mean/Std Dev, Pari LC, 10 min, 5 subjects): 811000 ± 677000 ng/g | concentration at 2 h (clinical; sputum, Sputum Tobramycin Concentrations, Sidestream, 300 mg in 5 ml 1/4 NS): 57500 ng/g | safety of dosage (in words) ([2]; 300 mg in 5 ml of 60 mg/ml in 1/4 NS): extremely safe | ± % change FEV1 ([2]; Pari LC): -1.2% and 1.2% and -0.6% and -2% and -5% | ± % change FEV1 ([2]; Sidestream): -2.2% and 0.0% and -7.6% and -1% | sputum tobramycin level, grand mean ([3]; Pari LC, 0, 300 mg in 5 ml 0.225 NS): 0 µg | sputum tobramycin level, grand mean ([3]; Pari LC, 10 min, 300 mg in 5 ml 0.225 NS): 639.1 µg | sputum tobramycin level, grand mean ([3]; Pari LC, 1 hr, 300 mg in 5 ml 0.225 NS): 117.0 µg | sputum tobramycin level, grand mean ([3]; Pari LC, 2 hr, 300 mg in 5 ml 0.225 NS): 77.6 µg | sputum tobramycin level, grand mean ([3]; Sidestream, 0 hr, 300 mg in 5 ml 0.225 NS): 0 µg | sputum tobramycin level, grand mean ([3]; Sidestream, 10 min, 300 mg in 5 ml 0.225 NS): 465.3 µg | sputum tobramycin level, grand mean ([3]; Sidestream, 1 hr, 300 mg in 5 ml 0.225 NS): 75.7 µg | sputum tobramycin level, grand mean ([3]; Sidestream, 2 hr, 300 mg in 5 ml 0.225 NS): 88.8 µg | sputum tobramycin level, grand mean ([3]; Ultra Neb, 0 hr, 600 mg in 30 ml 0.45% NS): 0 µg | sputum tobramycin level, grand mean ([3]; Ultra Neb, 10 min, 600 mg in 30 ml 0.45% NS): 1335.7 µg | sputum tobramycin level, grand mean ([3]; Ultra Neb, 1 hr, 600 mg in 30 ml 0.45% NS): 360.0 µg | sputum tobramycin level, grand mean ([3]; Ultra Neb, 2 hr, 600 mg in 30 ml 0.45% NS): 158.8 µg | concentrations delivered to the endobronchial space (in words) ([3]; formulation used with a jet nebulizer): in the efficacious range | endobronchial concentration with half dosage (in words) ([3]; human, in vivo): sufficient to achieve therapeutically effective concentration of tobramycin in the endobronchial space | degradation of tobramycin (in words) [4]: degradation of tobramycin occurs | time of minimum sputum level ([5]; Ultraneb 99): four | Cmax ([5]; human, sputum, inhaled or intranasal, read-out: peak sputum level, median): 1.61e+06 ng/g | Cmax ([5]; human, sputum, inhaled or intranasal, read-out: peak sputum levels, range): 310000 to 5.94e+06 ng/g | Tmax ([5]; human, sputum, inhaled or intranasal, Ultraneb 99, read-out: time of peak sputum levels after therapy): 10 to 30 min | share of patients in whom dose would be predicted to be efficacious (Pseudomonas aeruginosa [6]): sixty to seventy | reduction in the density of P. aeruginosa in sputum, factor (P. aeruginosa; aerosolized, all three 28-day periods): 100 | improvement with aerosolized treatment (in words) (P. aeruginosa; entire three-period study): significant improvement | solubility [7]: 160 mg/mL (≈ 342 mM) | binding by sputum [8]: up to 90% | treatment of exacerbations in CF (in words) [9]: successfully treat exacerbations which occur in patients with CF | efficacy of 80 mg doses (in words) (Pseudomonas aeruginosa [10]): reported effective
